Values belong to the molecule of their own block, whether it stands above or below them. The source made the active and inactive calls.
Legend:
[1] = molecular target: T1, Corticotropin-releasing factor receptor 2/Corticotropin-releasing factor-binding protein (Homo sapiens, UniProt P24387+Q13324); assay: Dose Response confirmation of uHTS hits for small molecule antagonists of the CRF-binding protein and CRF-R2 receptor complex.; assay type: functional; conditions: read-out: IC50_Mean
T1 sequence (Q13324 whole entry): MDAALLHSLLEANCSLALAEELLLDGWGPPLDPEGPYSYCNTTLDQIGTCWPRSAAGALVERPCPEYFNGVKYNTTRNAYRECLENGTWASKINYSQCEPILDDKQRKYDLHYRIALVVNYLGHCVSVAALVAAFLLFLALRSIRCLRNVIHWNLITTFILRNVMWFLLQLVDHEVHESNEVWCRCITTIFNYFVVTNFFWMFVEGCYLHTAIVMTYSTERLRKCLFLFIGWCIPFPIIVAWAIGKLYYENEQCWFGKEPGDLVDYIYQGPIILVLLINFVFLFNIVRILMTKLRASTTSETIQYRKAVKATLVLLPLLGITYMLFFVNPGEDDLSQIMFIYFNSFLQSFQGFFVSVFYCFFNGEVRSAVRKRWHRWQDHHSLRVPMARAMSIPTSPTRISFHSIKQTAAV
T1 sequence (P24387 whole entry): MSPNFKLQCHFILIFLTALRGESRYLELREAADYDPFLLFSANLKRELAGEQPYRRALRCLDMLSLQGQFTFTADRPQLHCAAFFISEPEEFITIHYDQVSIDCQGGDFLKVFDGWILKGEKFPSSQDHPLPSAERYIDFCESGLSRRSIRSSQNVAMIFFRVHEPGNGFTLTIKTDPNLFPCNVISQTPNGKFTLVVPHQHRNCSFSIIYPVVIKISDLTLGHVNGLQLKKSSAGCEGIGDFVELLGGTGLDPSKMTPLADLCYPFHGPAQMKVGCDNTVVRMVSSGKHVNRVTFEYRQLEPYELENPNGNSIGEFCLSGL

[2] = molecular target: Solute carrier family 12 member 2/member 5 (Homo sapiens, UniProt P55011+Q9H2X9); assay: KCC2 and NKCC1 inhibition by rubidium flux, cell-based, NKCC1 counter-screen (AID 1734); assay type: functional, HEK293
[3] = molecular target: T1, Corticotropin-releasing factor receptor 2/Corticotropin-releasing factor-binding protein; assay: activators of CRF receptor 2 with binding protein – uHTS hits, confirmation (AID 602473); assay type: functional; conditions: read-out: EC50_Mean
[4] = HepG2 cell cytotoxicity, dose response, cytotoxicity control for Shn3 inhibitor project, CellTiter-Glo, cherry-picked (AID 624134); assay type: functional, cell-based
[5] = cytotoxicity in HEK-293T cells, dose response, cytotoxicity control for BCR NF-kB inhibitor project, luminescence, B-cell screen hits (AID 489021); assay type: functional, cell-based;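 further: HEK-293T cells carrying an NF-kB luciferase reporter; cells exposed to compound for about 14 hours before viability readout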
Galanin receptor type 2 = Galanin receptor type 2 (Homo sapiens, UniProt O43603); assay: Dose Response cell-based high-throughput screening assay to identify antagonists of galanin receptor 2 (GALR2). [Related pubchem assays: 828, 866 ]; assay type: functional
Chain of Galanin receptor type 2 (O43603 whole entry): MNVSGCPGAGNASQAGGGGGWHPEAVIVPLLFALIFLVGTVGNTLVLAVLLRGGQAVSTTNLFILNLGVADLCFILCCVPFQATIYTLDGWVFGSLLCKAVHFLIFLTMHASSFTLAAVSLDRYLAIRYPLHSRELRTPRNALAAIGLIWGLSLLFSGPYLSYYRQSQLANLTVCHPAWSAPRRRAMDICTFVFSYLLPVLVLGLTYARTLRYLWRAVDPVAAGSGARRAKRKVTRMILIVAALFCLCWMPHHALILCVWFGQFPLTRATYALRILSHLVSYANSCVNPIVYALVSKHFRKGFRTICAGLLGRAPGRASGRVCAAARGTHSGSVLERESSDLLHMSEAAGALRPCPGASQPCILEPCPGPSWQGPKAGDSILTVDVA

[6] = C. albicans growth with fluconazole, confirmation, fluorescence, retest (AID 2467); assay type: functional, cell-based
[7] = Shn3 3'UTR reporter inhibitors, dose response, cell-based, Clone20 osteoblasts, firefly luciferase, cherry-picked (AID 624132); assay type: functional;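 further: firefly luciferase luminescence from reporter carrying the Shn3 3'UTR in osteoblasts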
[8] = control 3'UTR Renilla luciferase suppression, dose response, counter-screen for Shn3 inhibitor project, cell-based, Clone20-Shn3RL, cherry-picked (AID 624133); assay type: functional
[9] = molecular target: COUP transcription factor 2 (Homo sapiens, UniProt P24468); assay: Luminescence-based cell-based high throughput dose response assay to identify inhibitors of COUP-TFII (NR2F2).; assay type: functional;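 further: HEK293 cells transiently cotransfected with COUP-TFII expression vector and reporter; luciferase reporter luminescence driven by COUP-TFII from the pX2-168 reporter plasmid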
Chain of COUP transcription factor 2 (P24468 whole entry): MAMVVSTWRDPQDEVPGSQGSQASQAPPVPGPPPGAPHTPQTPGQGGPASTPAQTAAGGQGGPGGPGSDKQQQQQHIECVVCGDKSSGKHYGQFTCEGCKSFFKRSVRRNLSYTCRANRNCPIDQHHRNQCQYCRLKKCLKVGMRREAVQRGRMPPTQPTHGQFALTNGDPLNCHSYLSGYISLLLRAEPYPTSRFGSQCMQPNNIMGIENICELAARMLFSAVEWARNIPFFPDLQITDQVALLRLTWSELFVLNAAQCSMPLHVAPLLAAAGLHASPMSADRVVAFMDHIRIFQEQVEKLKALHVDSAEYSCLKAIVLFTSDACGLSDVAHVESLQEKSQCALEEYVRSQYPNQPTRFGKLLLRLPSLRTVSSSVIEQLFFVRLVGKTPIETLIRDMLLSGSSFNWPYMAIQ

INS1 = assay: beta cell apoptosis inhibitors, cytokine rescue, dose response, luminescence, retest (AID 449756); assay type: functional, cell-based; conditions: Rattus norvegicus;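 further: cell death triggered by IL-1 beta plus TNF-alpha plus IFN-gamma mixture; protective hits raise ATP signal compared with cytokine alone wells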
[10] = NIH-3T3 fibroblast cytotoxicity, dose response, cytotoxicity control, cell-based, fluorescence, Alamar Blue, secondary assay (AID 2327); assay type: functional;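 further: NIH-3T3 mouse fibroblasts cultured with fluconazole at 8 µg/mL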
[11] = T. cruzi intracellular amastigote growth inhibition, dose response, imaging, CA-I/72 strain, bovine embryo skeletal muscle, dry powder (AID 651885); assay type: functional, cell-based
[12] = Inhibition of T. cruzi Tulahuen strain amastigotes in L-6 muscle cells Measured in Cell-Based and Microorganism Combination System Using Plate Reader - 2138-03_Inhibitor_Dose_CherryPick_Activity.; assay type: functional; conditions: Rattus norvegicus, L6
[13] = NIH/3T3 fibroblast cytotoxicity, dose response, cytotoxicity control for T. cruzi growth inhibitor project, cell-based, cherry-pick samples, set 2 (AID 651817); assay type: functional; conditions: NIH3T3
[14] = T. b. rhodesiense proliferation inhibition, dose response, STIB900 strain, plate reader, cherry pick (AID 651893); assay type: functional, cell-based; conditions: Trypanosoma brucei
[15] = cytotoxicity in L-6 rat myocytes, dose response, cytotoxicity control, cell-based, plate reader, cherry-pick (AID 651896); assay type: functional
[16] = Inhibition of Plasmodium falciparum NF54 Measured in Cell-Based System Using Plate Reader - 2138-11_Inhibitor_Dose_CherryPick_Activity.; assay type: functional
[17] = L. donovani amastigote growth inhibition, dose response, axenic amastigotes, plate reader, cherry pick (AID 651891); assay type: functional, cell-based; conditions: Leishmania donovani
[18] = intracellular Trypanosoma cruzi inhibitors in host cells – cell-based, plate reader, cherry-pick samples, set 3, dose response (AID 651818); assay type: functional;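 further: compounds incubated with infected cells for about four days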
[19] = T. cruzi growth inhibition in host cells, dose response, cell-based, plate reader, dry powder, set 2 (AID 652275); assay type: functional
[20] = growth inhibition of intracellular T. cruzi, dose response, cell-based, plate reader, dry powder samples (AID 651845); assay type: functional
Paired box protein Pax-8 = Paired box protein Pax-8 (Homo sapiens, UniProt Q06710); assay: inhibitors of PAX8-driven TPO luciferase reporter, dose response, RMG-I cells, cherry-pick (AID 687027); assay type: functional, cell-based;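 further: luciferase reporter driven by Pax8 target thyroperoxidase promoter measured by SteadyGlo luminescence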
Chain of Paired box protein Pax-8 (Q06710 whole entry): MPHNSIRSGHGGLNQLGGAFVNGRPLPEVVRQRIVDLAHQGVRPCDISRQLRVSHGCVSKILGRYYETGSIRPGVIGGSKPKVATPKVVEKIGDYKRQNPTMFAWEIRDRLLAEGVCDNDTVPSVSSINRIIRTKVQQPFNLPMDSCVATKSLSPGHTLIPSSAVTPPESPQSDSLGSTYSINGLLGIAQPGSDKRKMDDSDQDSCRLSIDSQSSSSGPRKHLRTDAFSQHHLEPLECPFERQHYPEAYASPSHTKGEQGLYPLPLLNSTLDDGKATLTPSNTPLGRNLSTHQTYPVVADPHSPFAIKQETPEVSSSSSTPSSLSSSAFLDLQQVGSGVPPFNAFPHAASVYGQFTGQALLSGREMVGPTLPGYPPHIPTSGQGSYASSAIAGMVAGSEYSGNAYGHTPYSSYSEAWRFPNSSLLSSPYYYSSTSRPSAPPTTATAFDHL

[21] = molecular target: NAD-dependent protein deacylase sirtuin-5, mitochondrial (Homo sapiens, UniProt Q9NXA8); assay: SIRT5 deacylase inhibitors, dose response, biochemical, fluorescence imaging, cherry-pick, set 6 (AID 720597)
Chain of NAD-dependent protein deacylase sirtuin-5, mitochondrial (Q9NXA8 whole entry): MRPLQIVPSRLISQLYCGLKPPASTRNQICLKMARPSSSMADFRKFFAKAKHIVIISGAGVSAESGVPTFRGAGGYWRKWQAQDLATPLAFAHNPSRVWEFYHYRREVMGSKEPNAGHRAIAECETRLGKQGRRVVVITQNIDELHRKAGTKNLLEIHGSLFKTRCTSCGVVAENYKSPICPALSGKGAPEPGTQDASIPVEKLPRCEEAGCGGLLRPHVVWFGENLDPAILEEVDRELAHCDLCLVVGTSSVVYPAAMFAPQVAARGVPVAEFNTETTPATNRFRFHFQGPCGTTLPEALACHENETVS

Estrogen receptor beta = Estrogen receptor beta (Homo sapiens, UniProt Q92731);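 further: recombinant ER-beta bound to coactivator SRC1 peptide in presence of estradiol agonist; inhibitors block coactivator peptide binding and lower the FRET signal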
Chain of Estrogen receptor beta (Q92731 whole entry): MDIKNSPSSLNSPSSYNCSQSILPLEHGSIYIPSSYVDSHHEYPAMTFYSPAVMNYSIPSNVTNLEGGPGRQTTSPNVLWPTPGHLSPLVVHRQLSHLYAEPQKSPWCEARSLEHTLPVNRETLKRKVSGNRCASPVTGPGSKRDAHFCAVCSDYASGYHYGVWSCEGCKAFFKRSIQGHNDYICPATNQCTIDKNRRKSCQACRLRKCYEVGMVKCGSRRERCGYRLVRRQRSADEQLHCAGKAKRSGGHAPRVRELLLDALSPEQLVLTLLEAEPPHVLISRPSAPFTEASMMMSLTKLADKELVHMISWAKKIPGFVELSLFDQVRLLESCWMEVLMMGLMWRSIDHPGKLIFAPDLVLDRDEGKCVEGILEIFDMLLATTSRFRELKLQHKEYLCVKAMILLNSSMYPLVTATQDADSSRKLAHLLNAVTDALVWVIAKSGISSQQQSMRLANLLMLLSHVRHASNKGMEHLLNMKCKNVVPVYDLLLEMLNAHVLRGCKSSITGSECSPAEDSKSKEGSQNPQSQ

[22] = Mtb BioA inhibitors by displacement, dose response, biochemical, coupled fluorescence displacement, 20-point, dry powder (AID 743357); assay type: functional
[23] = P. falciparum Dd2 growth inhibitors, dose response, SYBR Green, cherry-picked samples (AID 1159567); assay type: functional, cell-based
[24] = HepG2 cell cytotoxicity, dose response, cytotoxicity control, cherry-picked samples (AID 1159577); assay type: functional, cell-based
[25] = molecular target: G-protein coupled receptor 183 (Homo sapiens, UniProt P32249); assay: SAR confirmation of small molecule antagonists of the EBI2 receptor via a luminescent beta-arrestin assa.; assay type: functional
Chain of G-protein coupled receptor 183 (P32249 whole entry): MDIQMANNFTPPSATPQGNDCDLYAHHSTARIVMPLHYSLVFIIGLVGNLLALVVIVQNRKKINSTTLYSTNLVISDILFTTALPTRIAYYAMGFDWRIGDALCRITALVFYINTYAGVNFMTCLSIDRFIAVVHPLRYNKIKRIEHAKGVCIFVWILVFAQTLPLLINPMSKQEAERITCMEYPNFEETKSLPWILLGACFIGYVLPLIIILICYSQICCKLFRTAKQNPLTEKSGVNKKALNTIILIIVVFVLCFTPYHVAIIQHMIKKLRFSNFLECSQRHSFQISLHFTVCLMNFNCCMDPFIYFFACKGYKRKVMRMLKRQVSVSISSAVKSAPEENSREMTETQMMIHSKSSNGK

Cytochrome P450 2C19 = Cytochrome P450 2C19 (Homo sapiens, UniProt P33261); assay: qHTS Assay for Inhibitors and Substrates of Cytochrome P450 2C19. [Related pubchem assays: 410 ]; assay type: ADME; conditions: read-out: Potency
Chain of Cytochrome P450 2C19 (P33261 whole entry): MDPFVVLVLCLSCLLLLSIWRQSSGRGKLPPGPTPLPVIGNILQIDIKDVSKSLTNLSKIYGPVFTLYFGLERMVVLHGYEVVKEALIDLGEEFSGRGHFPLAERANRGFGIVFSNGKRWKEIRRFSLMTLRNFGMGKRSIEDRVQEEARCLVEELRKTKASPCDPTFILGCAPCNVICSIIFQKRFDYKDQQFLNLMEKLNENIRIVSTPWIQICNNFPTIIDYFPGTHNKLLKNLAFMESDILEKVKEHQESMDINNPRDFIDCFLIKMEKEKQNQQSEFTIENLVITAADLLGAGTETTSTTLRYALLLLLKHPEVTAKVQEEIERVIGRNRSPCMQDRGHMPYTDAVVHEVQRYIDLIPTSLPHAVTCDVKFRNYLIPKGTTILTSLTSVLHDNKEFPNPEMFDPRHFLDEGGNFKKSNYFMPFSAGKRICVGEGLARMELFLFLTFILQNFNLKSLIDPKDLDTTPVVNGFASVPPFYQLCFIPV

IC50 [1]: > 47.1 µM (inactive)
IC50 [2]: 2.2 µM (active)
EC50 [3]: > 53 µM (inactive)
Structure (SMILES): O=C(NCCOc1ccccc1F)c1ccccc1SCc1ccc(F)cc1

AC50 (Paired box protein Pax-8): 7.27 µM (active)
AC50 [21]: > 30 µM (inactive)
Structure (SMILES): Cc1ccc(S(=O)(=O)N(C)C[C@@H]2OCCCC[C@H](C)Oc3ccc(NS(=O)(=O)c4ccc(Cl)cc4)cc3C(=O)N([C@H](C)CO)C[C@H]2C)cc1

IC50 [25]: 0.0015 µM (active)
Structure (SMILES): Cc1cc(CN2CCN(C(=O)/C=C/c3ccc(Br)cc3)CC2)ccc1F

The next lines start with the molecule.

Structure (SMILES): Cc1ccc(S(=O)(=O)CC2CSc3nc4ccccc4n32)cc1 (stereo not given)
AC50 [4]: 0.592 µM (active)
IC50 [5]: > 80 µM (inactive)
IC50 (Galanin receptor type 2): > 42 µM (not active)
EC50 [6]: 1.15 µM (active)
AC50 [7]: 0.347 µM (active)
AC50 [8]: 24.4 µM (active)
IC50 [9]: 4.21 µM (active)
AC50 (INS1): 3.55 µM (active)
EC50 [10]: > 160 µM (inactive)

Structure (SMILES): C[C@H]1CN([C@@H](C)CO)C(=O)c2cccc(NC(=O)c3ccncc3)c2O[C@@H]1CN(C)Cc1ccc(C(F)(F)F)cc1
IC50 [11]: 0.00601 µM (active)
IC50 [12]: 2.95 µM (inactive)
AC50 [13]: 39 µM (inactive)
IC50 [14]: 3.49 µM (inactive)
IC50 [15]: 45.5 µM (inactive)
IC50 [16]: 2.95 µM (inactive)
IC50 [17]: 16.3 µM (inactive)
AC50 [18]: 0.304 µM (active)
AC50 [19]: 0.0127 µM (active)
AC50 [20]: 0.0127 µM (active)

Structure (SMILES): CCCCCCN/C=C1\C(=O)CC(C)(C)C(C(=O)OC)C1=O (stereo not given)
IC50 (Estrogen receptor beta): > 50 µM (not active)

Structure (SMILES): CN1c2ccc(-c3cccc(F)c3)cc2[C@H]2[C@H](CCN2C(=O)CCCCCCC(=O)O)[C@H]1CO
AC50 [22]: 16.7 µM (active)

Structure (SMILES): COc1ccccc1NC(=O)N1CCCCN2[C@@H](CO)[C@@H](c3ccc(C#CC4CC4)cc3)[C@@H]2C1
AC50 [23]: 1.03 µM (active)
AC50 [24]: 9.69 µM (active)

Structure (SMILES): CCCn1c(=O)[nH]c2nc(-c3ccc(S(=O)(=O)O)cc3)[nH]c2c1=O
AC50 (Cytochrome P450 2C19): 7.94 µM (inconclusive)

Reference: ChEMBL document CHEMBL1201862, “PubChem BioAssay data set” (2004)
